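Assay format: 96-well plates, 48-hour exposure. Definition used: TGI = concentration required for complete inhibition of growth.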
What was measured:
Assay in all cases: inhibition of tumour cell growth, NCI panel, 48 h
MOLT-4 leukemia = test system: MOLT-4 leukemia
RXF 393 renal = test system: RXF 393 renal
SK-MEL-2 melanoma = test system: SK-MEL-2 melanoma
SR leukemia = test system: SR leukemia
K-562 leukemia = test system: K-562 leukemia
PC-3 prostate = test system: PC-3 prostate
SN12C renal = test system: SN12C renal
RPMI-8226 leukemia = test system: RPMI-8226 leukemia
HS 578T breast = test system: HS 578T breast
HL-60(TB) leukemia = test system: HL-60(TB) leukemia
NCI-H522 lung = test system: NCI-H522 lung
TK-10 renal = test system: TK-10 renal
MDA-N = test system: MDA-N
HCT-15 colon = test system: HCT-15 colon
MDA-MB-435 = test system: MDA-MB-435
HCC-2998 colon = test system: HCC-2998 colon
MDA-MB-231 breast = test system: MDA-MB-231 breast
IGROV1 ovarian = test system: IGROV1 ovarian
HOP-62 NSCLC = test system: HOP-62 NSCLC

| SMILES | TGI (MOLT-4 leukemia) [µM] | TGI (RXF 393 renal) [µM] | TGI (SK-MEL-2 melanoma) [µM] | TGI (SR leukemia) [µM] | TGI (K-562 leukemia) [µM] | TGI (PC-3 prostate) [µM] | TGI (SN12C renal) [µM] | TGI (RPMI-8226 leukemia) [µM] | TGI (HS 578T breast) [µM] | TGI (HL-60(TB) leukemia) [µM] | TGI (NCI-H522 lung) [µM] | TGI (TK-10 renal) [µM] | TGI (MDA-N) [µM] | TGI (HCT-15 colon) [µM] | TGI (MDA-MB-435) [µM] | TGI (HCC-2998 colon) [µM] | TGI (MDA-MB-231 breast) [µM] | TGI (IGROV1 ovarian) [µM] | TGI (HOP-62 NSCLC) [µM] |
| --- | --- | --- | --- | --- | --- | --- | --- | --- | --- | --- | --- | --- | --- | --- | --- | --- | --- | --- | --- |
| CO[C@@H](c1ccccc1)[C@H](O)[C@](O)(c1ccccc1)P(=O)(OC)OC | > 100 | > 100 | > 100 | > 100 | > 100 | > 100 | > 100 | > 100 | > 100 | > 100 | > 100 | > 100 | > 100 | > 100 | > 100 | > 100 | > 100 | > 100 |  |
| N=c1oc2ccc(Cl)cc2cc1C(=O)Nc1ccccc1 | > 100 | > 100 | > 100 | > 100 | > 100 | > 100 | > 100 | > 100 | > 59.6 | > 100 | > 100 | > 100 | > 100 | > 100 | > 100 | > 100 | > 100 | > 100 | > 94.8 |
| c1ccc2c(c1)CCN2CCc1c[nH]c2ccccc12 | > 10 | > 10 | > 10 | > 10 | > 10 | > 10 | > 10 | > 10 | > 10 | > 10 | > 10 | > 10 | > 10 | > 10 | > 10 | > 10 | > 10 | > 10 | > 10 |
| CC1CC[C@@]2(OC1)OC1C[C@H]3[C@@H]4CC[C@H]5CC(OC6OC(CO)C(OC7OC(CO)C(O)C(O)C7O)C(O)C6O)CCC5(C)[C@H]4CCC3(C)C1[C@@H]2C (stereo not given in full) | 25.4 | 19.8 | 15.3 | 27.5 | 42.6 | 15.1 | 15.3 | 45.3 | 17.1 | 18.5 | 13.8 | 17.6 | 16.3 | 28.9 | 18 | 12.9 | 17.2 | 9.77 | 16.1 |
| Cc1cc(NS(=O)(=O)c2ccc(Nc3c4ccccc4nc4ccc(C(=O)Nc5ccc(S(=O)(=O)N=C(N)N)cc5)cc34)cc2)no1 | > 100 | > 100 | > 100 | > 100 | > 100 | > 100 | > 100 | > 100 | > 100 | > 100 | > 100 | > 100 | > 100 | > 100 | > 100 | > 100 | > 100 | > 100 | > 100 |
| CN(N)/N=N/c1nc[nH]c1C(N)=O | 8.05 | > 100 | > 100 | 2.23 | > 100 | > 100 | > 57.2 | > 100 | > 100 | 14.6 | > 100 | > 100 | > 100 | > 100 | > 100 | > 42.2 | > 32.2 | > 100 | > 100 |
| C/C(=N\NC(N)=O)C(CN(C)C)C(c1ccccc1)c1c(O)c2ccccc2oc1=O (stereo not given) | > 100 | > 100 | > 100 | > 100 | > 100 | > 100 | > 100 | > 100 | > 100 | > 100 | > 100 | > 100 | > 100 | > 100 | > 100 | > 100 | > 100 | > 100 | > 100 |
| O=C1C(=O)N(C2CCCCC2)C(=S)N1C1CCCCC1 | > 100 | > 100 | > 100 | > 100 | > 100 | > 100 | > 100 | > 100 | > 100 | > 100 | > 100 | > 100 | > 100 | > 100 | > 100 | > 100 | > 100 | > 100 | > 100 |
| CCCCCCCC(=O)N/N=C/c1ccc(Sc2nccn2C)c([N+](=O)[O-])c1 | 62.5 | 30.4 | 31 | 55.6 | 82.6 | 33.2 | 28.9 | 46.7 | 39.3 | 0.772 | 28.4 | 83.2 | 32 | 29.3 | 28.5 | 26.5 | 30.1 | 24.7 | 36.4 |
| NC1=Nc2ccccc2Sc2nnc(-c3ccc(Cl)cc3)n21 | 72.2 | > 100 | > 100 | > 100 | 35.7 | > 100 | > 100 | > 100 | > 100 | > 100 | 68.3 | > 100 | > 100 | > 100 | > 100 | > 100 | 73.1 | > 100 | 85 |
| CN(C)c1ccc(/C=C/c2cc[n+](C)c3ccccc23)cc1 | > 38.3 | 32.8 | 6.37 | 6.51 | > 45.1 | 8.72 | 15 | 21.5 | 14 |  | 11.5 | 25.1 | 9.35 | > 100 | 10.2 | 17 | 20.3 | 21 | 16.3 |
| C=C(Br)CN(CC(=C)Br)C(C)=O | > 100 | > 100 | > 100 | > 100 | > 100 | > 100 | > 100 | > 100 | > 100 | > 100 | > 100 | > 100 | > 100 | > 100 | > 100 | > 100 | > 100 | > 100 | > 100 |
| CSCC[C@H]1C(=O)N=C(N)N1C(=O)OCc1ccccc1 | 51.5 | 45.6 | > 100 | 55.8 | 71.9 | > 100 | > 100 | > 100 | 49.9 | 44.8 | 46.5 | > 100 | > 100 | > 100 | > 100 | > 100 | > 100 | > 100 | > 100 |
